How the values were obtained:
rat Mdr1a (P-gp) = rat Mdr1a (P-gp) (Rattus norvegicus, UniProt Q6PSM0); assay: P-Glycoprotein (P-gp) Efflux Susceptibility Assay; type: in vitro ADME; conditions: LLC-PK1, pH 7.4; rat LLC-Mdr1a cells, B-A/A-B Papp ratio at 3 h; method 0.1 μM; read-out: P-gp efflux assay (rMDR1a BAAB)
Description: Assay 6: P-Glycoprotein (P-Gp) Efflux Susceptibility Assay
As P-gp is expressed at the blood-brain-barrier, among other tissues, lower P-gp efflux ratio values are associated with a better ability to cross the blood-brain-barrier to reach the site of BACE-1 expression in the central nervous system. P-gp efflux ratios are measured in cellular assays using cell lines that express P-gp from a number of species including rat, monkey, and human. The following assay was used to measure the rat P-gp efflux ratios, which are believed to be the most sensitive measure of P-gp susceptibility, for the compounds of the invention (test compounds) reported in the tables below.
The bidirectional transport of test compounds was conducted across pig kidney epithelial (LLC-PK1) cell monolayers. Native LLC-PK1 cells were obtained from The Netherlands Cancer Institute (Amsterdam, The Netherlands), and used under a license agreement. LLC-PK1 cells expressing a cDNA encoding rat Mdr1a (rat LLC-Mdr1a) were made in-house by stable transfection of LLC-PK1 cells with a rat MDR1 cDNA. LLC-PK1 and rat LLC-Mdr1a cell lines were cultured in 96-well transwell culture plates. […] Substrate solution (150 μL) was added to either the apical (A) or the basolateral (B) compartment of the culture plate, and buffer (150 μL; HBSS, 10 mM HEPES, pH 7.4) was added to the compartment opposite to that containing the compound. At t=3 h, 50 μL samples were removed from both sides of monolayers dosed with test compound and placed in 96 well plates, internal standard (50 μL 1 μM labetolol) was added to the samples. Samples were analyzed by LC/MS/MS using an Applied Biosystems SCIEX API 5000 triple quadruple mass spectrometry (Concord, ON, Canada) with a TurbolonSpray ion source in the positive ion mode. A Thermo Scientific Transcend LX-2 system (Franklin, Mass.) was coupled to the API 5000 with a flow rate of 800 μL/min to direct sample into the mass spectrometer. A Waters ACQUITY UPLC T3 (2×30 mm, 1.7 μm; Milford, Mass.) column was used for sample analysis. Mobile phase A consisted of 0.1% formic acid in water. Mobile phase B was acetonitrile with 0.1% formic acid. A gradient elution program was utilized where the solvent composition was held at 5% B for 0.25 min, changed from 5% B to 95% B at 0.25 min, and followed by holding at 95% B for 0.5 min, then, went back to 5% B at 0.75 min. The column was then re-equilibrated at the original solvent composition for 0.5 min. Mass spectrometric detection was accomplished by multiple reaction monitoring (MRM) of transitions unique to each compound. Sample concentration was obtained by extrapolation from the standard curve. Verapamil (1 μM) was used as the positive control to assess the functional activity of Pgp. The experiment was performed in triplicate.
The Papp was calculated by the following formula for samples taken at t=3 h:
[formula] where “Volume of Receptor Chamber” is 0.15 mL, “Area of membrane” is 0.11 cm^2, the “Initial Concentration” is the sum of the concentration measured in the donor compartment plus the concentration measured in the receiver compartment at t=3 h, “Δ in Concentration” is the concentration in the receiver compartment at 3 h, and “Δ in Time” is the incubation time (3×60×60=10800 s). Papp was expressed as 10^−6 cm/s.
The Papp reported in the table below is the average of the Papp for transport from A to B and Papp for transport from B to A at t=3 hr.
The B-A/A-B ratio (BAAB) was calculated by dividing the Papp from B to A by the Papp from A to B at t=3 h: […]

[1] = target: purified human autoBACE-2 (Homo sapiens (Human), UniProt Q9Y5Z0); assay: BACE-2 Assay (BACE-HTRF assay); type: biochemical; conditions: Assay 2; Ki calculated from IC50 by Cheng-Prusoff; read-out: BACE2 Ki
Outline: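 Purified human autoBACE-2 (1 nM final) pre-incubated 30 min at 30° C with compounds in 20 mM sodium acetate pH 5.0, 10% glycerol, 0.1% Brij-35, 5% DMSO final; endpoint HTRF cleavage of QSY7/Eu FRET peptide, read at 620 nm (320 nm excitation). IC50 by sigmoidal regression of normalized data; Ki by Cheng-Prusoff.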

BACE-1 = BACE-1 (Homo sapiens (Human), UniProt P56817); assay: BACE-1 Cellular Assay (Aβ in HEK293-APPswe/lon cells); type: cell-based; conditions: 4 hours
Outline: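 HEK293 cells stably expressing human APP with Swedish and London FAD mutations, cultured at 37° C., 5% CO2. Aβ40 or Aβ42 in conditioned media measured by electrochemiluminescent ELISA (WO2 capture; G2-10 or G2-11 detection). IC50 from variable-slope sigmoidal fit of signal versus compound concentration.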

[2] = target: purified human Cathepsin-D (Homo sapiens (Human), UniProt P07339); assay: Cathepsin-D Assay (time-resolved FRET); type: biochemical; conditions: Assay 4; Ki calculated from IC50 by Cheng-Prusoff;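 further: Europium-labelled peptide substrate with QSY7 quencher, cleavage read as 620 nm fluorescence after 30 min preincubation then 30 min reaction at 30 °C, pH 5.0, inhibition lowers signal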
Chain of purified human Cathepsin-D (P07339 65-412): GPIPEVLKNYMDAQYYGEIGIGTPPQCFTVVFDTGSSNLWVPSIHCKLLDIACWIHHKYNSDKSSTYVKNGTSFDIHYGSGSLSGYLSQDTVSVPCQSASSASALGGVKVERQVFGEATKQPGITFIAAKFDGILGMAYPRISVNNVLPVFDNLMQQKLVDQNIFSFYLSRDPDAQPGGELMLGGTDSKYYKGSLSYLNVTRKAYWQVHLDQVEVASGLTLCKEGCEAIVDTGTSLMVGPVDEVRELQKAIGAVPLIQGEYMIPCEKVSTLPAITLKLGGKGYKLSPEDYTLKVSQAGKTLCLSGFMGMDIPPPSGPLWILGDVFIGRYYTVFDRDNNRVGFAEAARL
Description: Assay 4: Cathepsin-D Assay
This substrate contains an C-terminal QSY7 moiety that serves as a quencher of the N-terminal Europium fluorophore (620 nm Em). In the absence of enzyme activity, 620 nm fluorescence is low in the assay and increased linearly over 1 hour in the presence of uninhibited Cathepsin-D enzyme. Inhibition of Cathespin D cleavage of the Eu-Aspartyl Protease-QSY7 substrate by inhibitors is manifested as a suppression of 620 nm fluorescence.
Varying concentrations of inhibitors in a volume of 100 nl are preincubated with purified human Cathepsin-D (0.1 nM in 10 μl) for 30 minutes at 30° C. in reaction buffer containing 100 mM Na-Acetate pH 5.0, and 0.02% Brij-35. Reactions are initiated by addition of 10 μl of 100 nM Eu-Aspartyl Protease-QSY7 substrate (50 nM final) to give a final reaction volume of 20 μl in a 384 well Nunc HTRF plate. The reactions are incubated at 30° C. for 30 minutes. The 620 nm fluorescence is then read on a Envision Multilabel plate reader (Perkin-Elmer) using a 200 microsecond delay followed by a 400 microsecond acquisition time window. Inhibitor IC50 values are derived from non-linear regression analysis of concentration response curves.

Chain of purified human autoBACE-2 (Q9Y5Z0 63-466): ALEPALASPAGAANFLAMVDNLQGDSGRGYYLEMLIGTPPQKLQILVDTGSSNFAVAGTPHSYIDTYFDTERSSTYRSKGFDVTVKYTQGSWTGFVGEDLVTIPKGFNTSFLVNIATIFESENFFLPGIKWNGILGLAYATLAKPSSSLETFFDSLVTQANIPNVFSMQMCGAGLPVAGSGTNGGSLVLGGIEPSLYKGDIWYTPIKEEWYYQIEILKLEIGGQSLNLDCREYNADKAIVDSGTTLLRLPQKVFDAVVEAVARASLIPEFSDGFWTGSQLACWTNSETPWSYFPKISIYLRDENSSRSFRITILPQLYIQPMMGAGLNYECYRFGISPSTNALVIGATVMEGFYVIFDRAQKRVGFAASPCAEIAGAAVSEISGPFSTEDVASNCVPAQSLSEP
Chain of rat Mdr1a (P-gp) (Q6PSM0 1-1272): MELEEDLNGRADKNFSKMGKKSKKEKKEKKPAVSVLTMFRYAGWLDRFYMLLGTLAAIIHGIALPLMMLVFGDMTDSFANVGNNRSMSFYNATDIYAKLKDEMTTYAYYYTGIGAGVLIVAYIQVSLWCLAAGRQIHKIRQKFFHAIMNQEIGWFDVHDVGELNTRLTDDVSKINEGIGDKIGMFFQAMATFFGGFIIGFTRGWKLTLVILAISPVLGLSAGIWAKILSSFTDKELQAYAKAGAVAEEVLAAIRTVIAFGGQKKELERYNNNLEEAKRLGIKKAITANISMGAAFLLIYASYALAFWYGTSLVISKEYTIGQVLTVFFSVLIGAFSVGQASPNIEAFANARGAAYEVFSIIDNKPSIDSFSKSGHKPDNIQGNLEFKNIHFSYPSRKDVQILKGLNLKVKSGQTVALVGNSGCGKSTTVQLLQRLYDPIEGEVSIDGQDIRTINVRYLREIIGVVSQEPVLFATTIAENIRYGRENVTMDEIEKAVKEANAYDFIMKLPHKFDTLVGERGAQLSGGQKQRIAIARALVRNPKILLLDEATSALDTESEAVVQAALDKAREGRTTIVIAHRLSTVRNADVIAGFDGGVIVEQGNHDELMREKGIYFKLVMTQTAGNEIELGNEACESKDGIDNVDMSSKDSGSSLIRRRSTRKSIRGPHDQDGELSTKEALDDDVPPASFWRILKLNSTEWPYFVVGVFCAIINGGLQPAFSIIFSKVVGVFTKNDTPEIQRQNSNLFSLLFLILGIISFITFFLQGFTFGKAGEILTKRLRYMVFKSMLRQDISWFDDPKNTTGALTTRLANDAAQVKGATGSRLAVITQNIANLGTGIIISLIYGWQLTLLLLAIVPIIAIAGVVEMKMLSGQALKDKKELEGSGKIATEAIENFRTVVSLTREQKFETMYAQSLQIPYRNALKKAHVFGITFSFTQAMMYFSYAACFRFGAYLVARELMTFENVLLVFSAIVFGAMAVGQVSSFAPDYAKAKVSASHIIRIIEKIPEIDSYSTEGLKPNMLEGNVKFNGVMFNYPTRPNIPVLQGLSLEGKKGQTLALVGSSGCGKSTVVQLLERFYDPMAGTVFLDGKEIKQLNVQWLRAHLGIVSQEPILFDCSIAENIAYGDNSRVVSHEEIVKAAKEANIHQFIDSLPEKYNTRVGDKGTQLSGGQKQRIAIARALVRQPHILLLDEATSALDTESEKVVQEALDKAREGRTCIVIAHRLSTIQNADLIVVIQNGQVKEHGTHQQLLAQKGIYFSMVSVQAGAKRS
Chain of BACE-1 (P56817 46-501): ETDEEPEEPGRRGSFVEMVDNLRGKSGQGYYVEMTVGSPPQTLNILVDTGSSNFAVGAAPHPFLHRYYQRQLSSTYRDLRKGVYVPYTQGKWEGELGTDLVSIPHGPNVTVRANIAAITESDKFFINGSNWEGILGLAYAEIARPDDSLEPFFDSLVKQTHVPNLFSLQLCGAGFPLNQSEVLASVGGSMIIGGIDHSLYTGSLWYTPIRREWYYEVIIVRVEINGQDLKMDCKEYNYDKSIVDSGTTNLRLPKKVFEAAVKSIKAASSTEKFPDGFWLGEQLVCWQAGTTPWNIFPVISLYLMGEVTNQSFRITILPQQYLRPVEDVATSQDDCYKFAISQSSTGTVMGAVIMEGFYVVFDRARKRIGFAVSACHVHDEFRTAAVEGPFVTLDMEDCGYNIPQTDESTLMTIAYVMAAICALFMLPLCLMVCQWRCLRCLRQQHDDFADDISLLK

SMILES | efflux ratio at 3 h (rat Mdr1a (P-gp)) | Ki [1] | IC50 (BACE-1) | Ki [2]
COc1cnc2c(Nc3ccc(F)c([C@]4(C)CS(=O)(=O)C(C)(C)C(N)=N4)c3)nccc2n1 [Ex 47 of WO2014059185, reference compound] | 7.9 |  |  | 
C[C@@]1(c2nc(Nc3nccc4cc(C#N)cnc34)ncc2F)CS(=O)(=O)[C@@](C)(C2CC2)C(N)=N1 [Example 5, 8-({4-[(3R,6S)-6-cyclopropyl-5-imino-3,6-dimethyl-1,1-dioxidothiomorpholin-3-yl]-5-fluoropyrimidin-2-yl}amino)-1,7-naphthyridine-3-carbonitrile] | 31 | 7.8 nM | 10 nM | 710 nM
COc1cnc2c(Nc3cc([C@]4(C)CS(=O)(=O)[C@@](C)(C5CC5)C(N)=N4)c(F)cn3)nccc2c1 [Example 6, N-{4-[(3R,6S)-6-cyclopropyl-5-imino-3,6-dimethyl-1,1-dioxidothiomorpholin-3-yl]-5-fluoropyridin-2-yl}-3-methoxy-1,7-naphthyridin-8-amine] | 1.5 | 0.57 nM | 3 nM | > 9400 nM
COc1cnc2c(Nc3ccc(F)c([C@]4(C)CS(=O)(=O)[C@@](C)(C5CC5)C(N)=N4)c3)nccc2c1 [Example 14, N-{3-[(3R,6S)-6-cyclopropyl-5-imino-3,6-dimethyl-1,1-dioxidothiomorpholin-3-yl]-4-fluorophenyl}-3-methoxy-1,7-naphthyridin-8-amine] | 2.9 | 2.8 nM | 21 nM | 1650 nM
C[C@@]1(c2cc(Nc3ncnc4cc(C#N)cnc34)ccc2F)CS(=O)(=O)[C@@](C)(C2CC2)C(N)=N1 [Example 16, 4-({3-[(3R,6S)-6-cyclopropyl-5-imino-3,6-dimethyl-1,1-dioxidothiomorpholin-3-yl]-4-fluorophenyl}amino)pyrido[3,2-d]pyrimidine-7-carbonitrile] | 31 | 1.4 nM | 2.6 nM | 2450 nM
C[C@@]1(c2cc(Nc3nccc4cc(C#N)cnc34)ccc2F)CS(=O)(=O)[C@@](C)(C2CC2)C(N)=N1 [Example 18, 8-({3-[(3R,6S)-6-cyclopropyl-5-imino-3,6-dimethyl-1,1-dioxidothiomorpholin-3-yl]-4-fluorophenyl}amino)-1,7-naphthyridine-3-carbonitrile] | 11 | 0.64 nM | 4.8 nM | 651 nM
COc1cnc2c(Nc3ccc(F)c([C@]4(C)CS(=O)(=O)[C@@](C)(C5CC5)C(N)=N4)c3)ncnc2n1 [Example 22, (2S,5R)-2-cyclopropyl-5-(2-fluoro-5-((7-methoxypteridin-4-yl)amino)phenyl)-3-imino-2,5-dimethylthiomorpholine 1,1-dioxide] | 26 | 11 nM | 15 nM | > 9400 nM
CC1(C)C(=N)N[C@](C)(c2cc(Nc3noc4cc(F)cnc34)ccc2F)CS1(=O)=O [WO′426 Ex. 30b, reference compound] |  | 6.1 nM | 82 nM | 
